Measured values taken from US20020058299A1, “Mycologic genera specific selective agar and method of manufacture” (priority 2000, published 2002).

Tested on: aggressive fungi
Assay: Empirical trials of Minimum Inhibitory Concentration levels that suppress aggressive fungi without restricting Stachybotrys
Type: cell-based
Settings: added to PDA base media
Procedure: In order to be successful in culturing Stachybotrys from environmental samples, Aspergillus flavus, Aspergillus fumigatus, Aspergillus vervicolor, Cladosporium species, Penicillium species, in addition to other fungi and bacteria, need to be suppressed. While conceptually simple, the difficulty is to determine which base media, in combination with which one or more antibiotics, at what concentrations, incubated at what temperature regimes, for how long, would achieve inhibition of competitors—without restricting Stachybotrys. Extensive experimental trials empirically determined the Minimum Inhibitory Concentration (MIC) levels of various compounds that would effectively suppress aggressive fungi without restricting Stachybotrys development. Through this empirical effort there has been developed a proprietary formula for a selective agar (PDA+) based on commercially available base media and additional ingredients for the specific recovery of Stachybotrys chartarum.
(2) Miconazole (antifungal compound added to base media at 1.6 micrograms (μg) per milliliter (ml) of PDA+, the optimum concentration within the functional range of 1.0 to 3.2 μg/ml).

## Clc1ccc(COC(Cn2ccnc2)c2ccc(Cl)cc2Cl)c(Cl)c1 (stereo not shown) [Miconazole]
  optimum concentration in PDA+: 1.6 micrograms (μg) per milliliter (ml)
